Data taken from PubChem BioAssay (NCI).
“And” between values parts separate entries of the source, which are not always exact repeats. Equal entries are not always repeated.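 Following 48 hours of exposure in 96-well plates, responses at five concentrations were used to interpolate endpoints linearly. At the GI50, growth is halved. TGI: concentration producing complete growth inhibition.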

Legend:
Test in all cases: inhibition of tumour cell growth, NCI panel, 48 h
[1] = system: DMS 273 small cell lung
[2] = system: NCI-H226 lung
[3] = system: M14 melanoma
[4] = system: BT-549 breast
[5] = system: SN12C renal
[6] = system: DLD-1 colon
[7] = system: UACC-62 melanoma
[8] = system: KM12 colon
[9] = system: SF-295 CNS
[10] = system: MDA-MB-231 breast

Row | SMILES | TGI [1] [µM] | TGI [2] [µM] | TGI [3] | TGI [4] | GI50 [5] [µM] | TGI [5] [µM] | TGI [6] [µM] | TGI [7] | TGI [8] [µM] | TGI [9] [µM] | GI50 [1] [µM] | GI50 [8] [µM] | GI50 [2] [µM] | GI50 [9] [µM] | GI50 [3] [µM] | GI50 [4] [µM] | GI50 [10] [µM] | TGI [10] [µM] | GI50 [6] [µM] | GI50 [7] [µM]
1 | CCOC(=O)N[C@H]1CCc2cc(OC)c(OC)c(OC)c2-c2ccc(SC)c(=O)cc21 | > 100 | 3.29 | 21.7 µM and > 27.1 µM | 33.2 µM and > 32.5 µM | < 0.01 | > 100 | > 100 | 70.7 µM and > 100 µM |  |  |  |  |  |  |  |  |  |  |  | 
2 | CC12CCC(=O)C[C@H]1CCC(OC=O)C2Br (stereo partly specified) | > 100 | > 100 | > 100 µM |  |  | > 100 | > 100 | > 100 µM | > 100 | > 100 |  |  |  |  |  |  |  |  |  | 
3 | COC(=O)/C(C#N)=C1\N=NNN1c1ccc(OC)cc1 | > 100 | > 100 | > 100 µM |  |  | > 100 | > 100 | > 100 µM | > 100 | > 100 |  |  |  |  |  |  |  |  |  | 
4 | C/C(CC(=O)Nc1ccc(C)c(C)c1)=N\N(c1ccccc1)c1ccccc1 | 33.5 | > 100 | > 100 µM |  |  | > 100 | > 100 | 57.4 µM | > 100 | > 100 |  |  |  |  |  |  |  |  |  | 
5 | COC(=O)/C(=C/c1ccc(OC)cc1)C(C(=O)O)=C1CCCC1 | > 100 | > 100 | > 100 µM |  |  | > 100 | > 100 | > 100 µM | > 100 | > 100 |  |  |  |  |  |  |  |  |  | 
6 | COC(=O)C1CCCC2(C1)OCCO2 (stereo unspecified) | > 100 | > 100 | > 100 µM |  |  | > 100 | > 100 | > 100 µM | > 100 | > 100 |  |  |  |  |  |  |  |  |  | 
7 | COC(=O)/C(=N\NC(N)=S)C(C(=O)OC)C(=O)C(=O)Nc1ccc(C)cc1 (stereo unspecified) | > 100 | > 100 | > 100 µM |  |  | > 100 | > 100 | > 100 µM | > 100 | > 100 |  |  |  |  |  |  |  |  |  | 
8 | CC(C)C1=Cc2ccc3c(c2C(=O)C1=O)CCCC3(C)C | 14.8 | 35.9 | 16.2 µM |  |  | 13.9 | 5.08 | 15.2 µM | 33.1 | 31 |  |  |  |  |  |  |  |  |  | 
9 | CN(C)C(=S)/N=c1\sn(C)/c(=N\C(=S)N(C)C)n1C | > 100 | > 100 | > 100 µM |  |  | > 100 | > 100 | > 100 µM | > 100 | > 100 |  |  |  |  |  |  |  |  |  | 
10 | C#CC1/C(=C\C(=O)OC)CCCC1O (stereo unspecified) | > 100 | > 100 | > 100 µM |  |  | > 100 | > 100 | > 100 µM | > 100 | > 100 |  |  |  |  |  |  |  |  |  | 
11 | CCC[CH2][Sn]([CH2]CCC)([O]C(=O)c1ccc(OC)c(OC)c1OC)[O][Sn]([CH2]CCC)([CH2]CCC)[O]C(=O)c1ccc(OC)c(OC)c1OC | 1.54 | 0.89 | 0.583 µM | 1.15 µM | 0.443 | 1.58 | 0.419 | 0.504 µM | 2.31 | 1.5 | 0.334 | 0.859 | 0.33 | 0.568 | 0.267 | 0.241 | 0.586 | 1.89 | 0.147 | 0.164
12 | COc1c(O)c2c(=O)cc3c4c5c(cc(=O)c6c(O)c(OC)c(CC(C)O)c(c(c1CC(C)O)c24)c65)OCO3 (stereo unspecified) | 3.26 | 6.66 | 3.57 µM |  |  | 3.18 | 8.39 | 3.79 µM | 4.09 | 6.09 |  |  |  |  |  |  |  |  |  | 
13 | Cc1c(N(C)C)ccc2c(=O)c3cccc(CC(=O)O)c3oc12 | > 100 | > 100 | > 100 µM | > 100 µM |  | > 100 | > 100 | > 100 µM | > 100 | > 100 |  |  |  |  |  |  |  | > 100 |  | 
14 | Cc1ccc(C)c(NC(=O)c2cccc([N+](=O)[O-])c2O)c1 | 77.5 | 68.8 | > 100 µM |  |  | > 100 | > 100 | 82.9 µM | 61.5 | 41.5 |  |  |  |  |  |  |  |  |  | 
15 | O=[N+]([O-])c1ccc2occ3c2c1CCC3 | > 100 | > 100 | > 100 µM |  |  | > 100 | > 100 | > 100 µM | > 100 | > 100 |  |  |  |  |  |  |  |  |  | 
16 | N#C/C(=C\c1ccc2ccccc2c1)C(=O)c1ccccc1 | > 100 | > 100 | > 88.4 µM | > 100 µM |  | > 87.2 | > 100 | > 78.5 µM | > 100 | > 100 |  |  |  |  |  |  |  |  |  | 
17 | Cc1ccccc1C(=O)c1cc(O)ccc1O | > 100 | > 100 | > 100 µM |  |  | > 100 | > 100 | > 100 µM | > 100 | > 100 |  |  |  |  |  |  |  |  |  | 
